Laboratory results as given in ChEMBL document CHEMBL1201862, “PubChem BioAssay data set” (2004).
Activity calls are given as the source filed them.

How the values were obtained:
[1] = molecular target: Eukaryotic translation initiation factor 4E (Mus musculus, UniProt P63073); assay: eIF4E–eIF4G protein interaction inhibitors, dose response, biochemical, TR-FRET (AID 855); assay type: functional;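 note: potency for disrupting eIF4E binding to eIF4GI seen as loss of FRET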
[2] = inhibitors of firefly luciferase expression or activity, dose response, H4 neuroglioma cells, luminescence (AID 1990); assay type: functional, cell-based
[3] = Luminescence Cell-Based Dose Response HTS to Identify Inhibitors of 5'UTR Stem-Loop Driven Prion Protein mRNA Translation in H4 Neuroglioblastoma Cells. [Related pubchem assays: 1827 (Project Summary), 1813 (Primary HTS)]; assay type: functional
[4] = inhibitors of SNCA 5'UTR-driven reporter translation, confirmation, H4 neuroglioma cells, luminescence (AID 1988); assay type: functional, cell-based
Estrogen receptor beta [5] = molecular target: T1, Estrogen receptor beta (Homo sapiens, UniProt Q92731);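 note: recombinant ER-beta bound to coactivator SRC1 peptide in presence of estradiol agonist; inhibitors block coactivator peptide binding and lower the FRET signal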
Estrogen receptor beta [6] = molecular target: T1, Estrogen receptor beta; assay: ERβ–SRC-3 coactivator interaction inhibitors, confirmation, orthogonal assay, biochemical, ELISA, streptavidin-HRP readout (AID 1060)
[7] = molecular target: T2, Voltage-gated N-type calcium channel alpha-1B subunit/Amyloid beta A4 precursor protein-binding family A member 1 (Homo sapiens, UniProt Q00975+Q02410); assay type: protein assay
[8] = molecular target: T2, Voltage-gated N-type calcium channel alpha-1B subunit/Amyloid beta A4 precursor protein-binding family A member 1; assay type: protein assay; remark: listed apart in the source
[9] = molecular target: T3, Neuropeptides B/W receptor type 1 (Homo sapiens, UniProt P48145); assay: Fluorescence-based dose response cell-based high throughput screening assay to identify antagonists of the G-protein coupled receptor 7 (GPR7). [Related pubchem assays: 1952 (Screening assay (GPR7 antagonists).), 1880 (Summary AID.)]; assay type: functional
T3 sequence (P48145 whole entry): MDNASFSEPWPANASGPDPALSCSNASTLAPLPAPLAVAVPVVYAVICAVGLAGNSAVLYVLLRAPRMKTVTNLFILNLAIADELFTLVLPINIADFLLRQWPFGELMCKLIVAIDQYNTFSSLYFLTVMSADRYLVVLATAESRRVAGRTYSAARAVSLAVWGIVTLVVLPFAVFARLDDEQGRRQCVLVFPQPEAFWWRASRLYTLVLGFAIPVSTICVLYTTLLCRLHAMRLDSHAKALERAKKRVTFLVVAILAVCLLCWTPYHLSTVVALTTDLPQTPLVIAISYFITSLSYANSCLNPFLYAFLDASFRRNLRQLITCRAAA

[10] = molecular target: Melanin-concentrating hormone receptor 1 (Homo sapiens, UniProt Q99705); assay: Fluorescence-based counterscreen for antagonists of the G-protein coupled receptor 7 (GPR7): cell-based high throughput dose response assay to identify antagonists of the melanin-concentrating hormone receptor 1 (MCHR1).; assay type: functional
[11] = molecular target: T4, Eukaryotic translation initiation factor 2-alpha kinase 3 (Homo sapiens, UniProt Q9NZJ5); assay: Dose response cell-based high-throughput screening assay to measure PERK inhibition. [Related pubchem assays: 1416 ]; assay type: functional
T4 sequence (Q9NZJ5 whole entry): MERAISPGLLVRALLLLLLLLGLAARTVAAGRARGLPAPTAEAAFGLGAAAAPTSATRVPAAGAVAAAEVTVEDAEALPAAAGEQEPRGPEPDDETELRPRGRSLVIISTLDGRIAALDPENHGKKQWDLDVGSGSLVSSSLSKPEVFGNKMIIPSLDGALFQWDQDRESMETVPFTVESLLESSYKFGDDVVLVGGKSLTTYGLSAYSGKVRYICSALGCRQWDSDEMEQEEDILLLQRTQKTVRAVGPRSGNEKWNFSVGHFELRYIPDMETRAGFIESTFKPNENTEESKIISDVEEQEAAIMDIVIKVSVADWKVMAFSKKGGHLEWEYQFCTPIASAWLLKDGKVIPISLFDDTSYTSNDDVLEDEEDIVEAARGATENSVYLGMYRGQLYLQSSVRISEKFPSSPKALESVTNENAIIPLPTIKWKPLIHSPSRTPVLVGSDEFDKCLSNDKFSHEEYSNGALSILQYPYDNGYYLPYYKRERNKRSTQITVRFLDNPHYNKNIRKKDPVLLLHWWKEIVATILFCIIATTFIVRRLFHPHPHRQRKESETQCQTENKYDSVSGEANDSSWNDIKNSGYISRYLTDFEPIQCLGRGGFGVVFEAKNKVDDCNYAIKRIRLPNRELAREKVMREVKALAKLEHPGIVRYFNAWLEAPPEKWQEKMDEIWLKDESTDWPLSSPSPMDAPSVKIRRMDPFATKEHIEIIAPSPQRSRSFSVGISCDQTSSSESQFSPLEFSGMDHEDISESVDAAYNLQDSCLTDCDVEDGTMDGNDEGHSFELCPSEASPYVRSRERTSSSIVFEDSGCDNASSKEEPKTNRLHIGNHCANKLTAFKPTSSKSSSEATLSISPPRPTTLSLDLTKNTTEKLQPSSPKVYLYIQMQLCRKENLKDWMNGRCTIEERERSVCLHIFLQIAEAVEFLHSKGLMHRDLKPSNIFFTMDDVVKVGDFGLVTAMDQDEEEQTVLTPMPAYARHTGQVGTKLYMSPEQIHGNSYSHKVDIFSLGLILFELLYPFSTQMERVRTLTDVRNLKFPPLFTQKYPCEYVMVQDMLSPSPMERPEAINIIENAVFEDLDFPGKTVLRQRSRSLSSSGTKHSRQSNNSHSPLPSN

[12] = molecular target: T4, Eukaryotic translation initiation factor 2-alpha kinase 3; assay: Counterscreen assay for PERK inhibitors: Dose response cell-based high throughput screening assay to measure inhibition of PERK at 6 hours. [Related pubchem assays: 1522, 1416 ]; assay type: functional
[13] = luciferase reporter signal reduction – luminescence, H4-C neuroglioblastoma cells, dose response (AID 2458); assay type: functional, cell-based;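 note: H4 neuroglioblastoma cells stably carrying a luciferase reporter gene fusion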
cells = assay type: functional, cell-based
[14] = growth suppression of PTEN-null colon cells, dose response, cell-based, HCT116 PTEN knockout (AID 1047); assay type: functional;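 note: HCT116 colon tumor cells with PTEN knocked out; cells exposed to compound for 60 hours before readout; potency for loss of cell viability measured by luminescence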
[15] = growth suppression of beta-catenin-knockout colon cells, dose response, cell-based, HCT116, human colon tumor (AID 1045); assay type: functional;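 note: HCT116 colon tumor cells with beta catenin knocked out; cells exposed to compound for 60 hours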
[16] = inhibitors of SNCA 5'UTR-driven translation, confirmation, luminescence, H4 neuroglioblastoma cells, dose confirmation (AID 2454); assay type: functional, cell-based;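 note: H4 neuroglioblastoma cells carrying an alpha-synuclein 5'UTR luciferase reporter; potency for inhibition of the luciferase signal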
[17] = cytotoxicity in HEK-293T cells, dose response, cytotoxicity control for TCR NF-kB inhibitor project, luminescence, T-cell screen hits (AID 489026); assay type: functional, cell-based;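 note: cells exposed to compound about 14 hours before the viability readout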

T2 sequence (Q00975 whole entry): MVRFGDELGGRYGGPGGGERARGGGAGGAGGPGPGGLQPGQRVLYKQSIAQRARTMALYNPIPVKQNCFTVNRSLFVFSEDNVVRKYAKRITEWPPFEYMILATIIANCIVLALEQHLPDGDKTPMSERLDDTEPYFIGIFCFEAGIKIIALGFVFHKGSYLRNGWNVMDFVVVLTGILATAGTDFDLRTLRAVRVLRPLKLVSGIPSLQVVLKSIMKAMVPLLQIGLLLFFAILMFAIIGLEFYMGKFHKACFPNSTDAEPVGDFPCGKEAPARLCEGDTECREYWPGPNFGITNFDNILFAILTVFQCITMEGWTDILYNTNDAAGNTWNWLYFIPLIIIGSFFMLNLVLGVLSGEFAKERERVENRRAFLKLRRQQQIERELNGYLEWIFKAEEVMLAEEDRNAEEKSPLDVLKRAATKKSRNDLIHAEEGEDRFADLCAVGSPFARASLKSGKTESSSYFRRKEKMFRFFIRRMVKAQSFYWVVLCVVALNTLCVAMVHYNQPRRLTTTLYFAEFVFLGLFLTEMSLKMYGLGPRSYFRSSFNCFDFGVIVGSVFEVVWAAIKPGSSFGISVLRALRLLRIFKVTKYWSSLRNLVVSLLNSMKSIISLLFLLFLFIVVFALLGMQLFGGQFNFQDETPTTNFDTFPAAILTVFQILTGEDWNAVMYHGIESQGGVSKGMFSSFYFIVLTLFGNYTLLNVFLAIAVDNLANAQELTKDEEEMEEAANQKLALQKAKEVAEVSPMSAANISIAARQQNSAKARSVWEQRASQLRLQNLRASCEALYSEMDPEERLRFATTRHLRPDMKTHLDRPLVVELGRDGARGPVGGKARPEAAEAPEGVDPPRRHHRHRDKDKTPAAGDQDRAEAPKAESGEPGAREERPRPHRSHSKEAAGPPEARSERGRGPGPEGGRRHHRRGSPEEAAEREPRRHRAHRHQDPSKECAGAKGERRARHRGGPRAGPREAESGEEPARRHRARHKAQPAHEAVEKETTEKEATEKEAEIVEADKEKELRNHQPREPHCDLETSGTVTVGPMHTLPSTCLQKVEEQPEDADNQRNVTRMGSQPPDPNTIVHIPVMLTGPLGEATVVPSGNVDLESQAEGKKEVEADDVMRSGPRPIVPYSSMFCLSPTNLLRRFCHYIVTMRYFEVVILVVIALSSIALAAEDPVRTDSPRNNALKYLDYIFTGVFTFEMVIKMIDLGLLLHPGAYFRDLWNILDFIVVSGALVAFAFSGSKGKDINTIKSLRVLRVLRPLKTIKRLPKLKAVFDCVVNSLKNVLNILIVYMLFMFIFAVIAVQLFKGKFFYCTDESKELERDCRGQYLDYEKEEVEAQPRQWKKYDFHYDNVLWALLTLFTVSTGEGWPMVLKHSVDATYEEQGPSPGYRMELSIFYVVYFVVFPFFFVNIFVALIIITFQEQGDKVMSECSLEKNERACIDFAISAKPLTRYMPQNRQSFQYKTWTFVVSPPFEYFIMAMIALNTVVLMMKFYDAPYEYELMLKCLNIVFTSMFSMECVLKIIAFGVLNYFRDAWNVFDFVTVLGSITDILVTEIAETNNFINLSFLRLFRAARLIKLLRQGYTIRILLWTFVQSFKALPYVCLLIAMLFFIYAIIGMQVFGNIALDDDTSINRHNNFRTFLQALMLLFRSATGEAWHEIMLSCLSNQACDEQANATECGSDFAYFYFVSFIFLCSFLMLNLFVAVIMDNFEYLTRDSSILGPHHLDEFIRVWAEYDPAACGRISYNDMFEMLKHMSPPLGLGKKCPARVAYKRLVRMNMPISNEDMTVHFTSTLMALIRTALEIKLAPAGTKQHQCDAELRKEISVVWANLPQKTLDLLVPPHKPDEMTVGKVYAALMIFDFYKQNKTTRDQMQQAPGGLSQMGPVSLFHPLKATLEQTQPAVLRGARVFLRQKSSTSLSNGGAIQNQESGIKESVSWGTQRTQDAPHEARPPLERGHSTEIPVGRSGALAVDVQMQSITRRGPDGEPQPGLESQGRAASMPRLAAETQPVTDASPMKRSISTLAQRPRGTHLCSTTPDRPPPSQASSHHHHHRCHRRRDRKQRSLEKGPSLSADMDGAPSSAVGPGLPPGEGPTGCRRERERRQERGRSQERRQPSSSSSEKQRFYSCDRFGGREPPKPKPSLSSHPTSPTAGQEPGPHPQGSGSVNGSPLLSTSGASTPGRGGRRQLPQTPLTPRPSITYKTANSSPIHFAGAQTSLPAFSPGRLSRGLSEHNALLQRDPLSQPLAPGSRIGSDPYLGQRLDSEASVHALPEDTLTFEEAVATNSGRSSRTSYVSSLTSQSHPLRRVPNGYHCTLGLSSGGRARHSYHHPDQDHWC
T2 sequence (Q02410 whole entry): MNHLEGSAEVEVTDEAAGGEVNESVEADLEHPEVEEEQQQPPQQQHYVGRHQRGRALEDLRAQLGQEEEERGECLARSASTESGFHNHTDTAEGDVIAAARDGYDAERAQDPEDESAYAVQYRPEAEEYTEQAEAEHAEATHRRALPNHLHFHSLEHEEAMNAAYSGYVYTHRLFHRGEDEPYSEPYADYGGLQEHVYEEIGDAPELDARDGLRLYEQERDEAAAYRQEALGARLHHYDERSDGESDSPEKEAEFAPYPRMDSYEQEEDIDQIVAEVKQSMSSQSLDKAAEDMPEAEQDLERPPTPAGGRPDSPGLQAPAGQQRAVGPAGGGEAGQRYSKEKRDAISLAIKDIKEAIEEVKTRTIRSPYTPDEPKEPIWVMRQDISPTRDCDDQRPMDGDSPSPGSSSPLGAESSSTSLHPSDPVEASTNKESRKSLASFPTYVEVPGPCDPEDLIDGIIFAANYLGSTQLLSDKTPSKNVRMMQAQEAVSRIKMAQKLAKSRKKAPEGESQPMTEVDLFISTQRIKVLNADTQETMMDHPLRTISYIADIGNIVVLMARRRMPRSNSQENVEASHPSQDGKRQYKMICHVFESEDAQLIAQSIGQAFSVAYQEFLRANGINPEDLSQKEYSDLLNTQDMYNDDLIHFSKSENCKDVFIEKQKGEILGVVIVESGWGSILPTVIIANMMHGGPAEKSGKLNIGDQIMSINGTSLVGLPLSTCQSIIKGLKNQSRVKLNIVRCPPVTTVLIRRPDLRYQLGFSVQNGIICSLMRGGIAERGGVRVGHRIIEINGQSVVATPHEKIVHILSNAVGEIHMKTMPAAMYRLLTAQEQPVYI
T1 sequence (Q92731 whole entry): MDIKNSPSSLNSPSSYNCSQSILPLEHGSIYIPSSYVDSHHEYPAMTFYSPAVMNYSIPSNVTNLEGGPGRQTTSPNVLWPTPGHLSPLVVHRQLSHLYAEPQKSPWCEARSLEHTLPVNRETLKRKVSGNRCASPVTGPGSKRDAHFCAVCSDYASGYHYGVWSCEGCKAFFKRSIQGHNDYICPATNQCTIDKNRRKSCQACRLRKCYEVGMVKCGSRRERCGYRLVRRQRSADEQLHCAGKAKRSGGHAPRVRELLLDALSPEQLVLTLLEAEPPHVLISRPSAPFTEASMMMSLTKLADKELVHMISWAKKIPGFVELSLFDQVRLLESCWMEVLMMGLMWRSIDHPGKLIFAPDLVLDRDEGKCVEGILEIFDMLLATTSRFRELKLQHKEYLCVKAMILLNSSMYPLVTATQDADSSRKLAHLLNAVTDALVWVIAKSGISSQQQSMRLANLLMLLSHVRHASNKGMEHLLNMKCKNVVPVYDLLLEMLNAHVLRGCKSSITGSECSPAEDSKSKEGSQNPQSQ
Chain of Eukaryotic translation initiation factor 4E (P63073 whole entry): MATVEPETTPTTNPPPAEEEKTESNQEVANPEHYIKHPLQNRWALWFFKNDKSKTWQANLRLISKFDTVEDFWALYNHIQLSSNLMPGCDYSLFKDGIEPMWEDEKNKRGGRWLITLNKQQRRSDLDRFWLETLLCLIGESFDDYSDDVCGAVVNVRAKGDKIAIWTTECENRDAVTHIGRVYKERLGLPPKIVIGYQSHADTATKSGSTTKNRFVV
Chain of Melanin-concentrating hormone receptor 1 (Q99705 whole entry): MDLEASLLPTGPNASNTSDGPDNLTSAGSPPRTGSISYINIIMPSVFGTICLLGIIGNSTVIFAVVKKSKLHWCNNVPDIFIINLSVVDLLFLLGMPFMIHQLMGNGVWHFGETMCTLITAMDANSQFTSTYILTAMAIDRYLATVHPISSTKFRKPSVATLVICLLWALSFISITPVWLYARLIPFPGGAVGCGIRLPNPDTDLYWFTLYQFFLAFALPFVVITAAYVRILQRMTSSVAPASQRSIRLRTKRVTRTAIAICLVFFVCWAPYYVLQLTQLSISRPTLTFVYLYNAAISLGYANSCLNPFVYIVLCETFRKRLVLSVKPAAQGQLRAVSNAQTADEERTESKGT

For O=C(NC1CCCCC1)C1CCN(c2cnccn2)CC1, the IC50 [1] was > 64 µM (inactive).
In the case of Oc1ccccc1-c1nnc(SCCN2CCOCC2)n1Cc1ccccc1, the EC50 [2] is reported as 9.74 µM (active), the EC50 [3] is reported as 8.21 µM (active) and the EC50 [4] is reported as 7.29 µM (active). The IC50 (Estrogen receptor beta [5]) was 3.51 µM (active) and the IC50 (Estrogen receptor beta [6]) was < 0.023 µM (not active).
In the case of Cc1cc(C)c2c(=O)n(CC(=O)N3CCC(Cc4ccccc4)CC3)sc2n1, the IC50 [7] is reported as 15.5 µM (active) and the IC50 [8] is reported as > 50 µM (inactive).
In the case of Cc1ccc(-n2c(SCC(N)=O)nnc2-c2ccc(S(=O)(=O)N3CCCCC3)cc2)c(C)c1, the IC50 [9] is reported as 5.29 µM (active) and the IC50 [10] is reported as 29.6 µM (not active).
With COC(=O)C(NC(C)=O)(Nc1ccc(C)cn1)C(F)(F)F (configuration not stated) the EC50 [11] was > 55.7 µM (not active) and the EC50 [12] was > 55.7 µM (not active).
For COc1ccc2c3c([nH]c2c1)C1CC2C(CC(O)C(OC)C2CO)CN1CC3 (configuration not stated), the EC50 [11] was > 55.7 µM (not active) and the EC50 [12] was > 55.7 µM (not active).
With CCn1c2ccccc2c2cc(Nc3cc(C)nc4ncnn34)ccc21 the EC50 [2] was < 0.1 µM (active), the EC50 [13] was 0.265 µM (active) and the EC50 (cells) was 0.255 µM (active). The EC50 [4] was < 0.1 µM (active), the EC50 [14] was < 0.059 µM (active) and the EC50 [15] was < 0.059 µM (active). The EC50 [16] was 0.354 µM (active) and the IC50 [17] was 43.4 µM (inactive).
